Laboratory results as given in US20210379210A1, “RADIOLIGANDS FOR IMAGING THE LPA1 RECEPTOR” (BRISTOL-MYERS SQUIBB COMPANY, priority 2018, published 2021).
“And” between values parts separate entries of the source, which are not always exact repeats. Equal entries are not always repeated. Where two headings read alike, the source gives them in different places.

How the values were obtained:
[1] = In-vivo PET imaging, lung uptake in wild type and bleomycin treated rats; parameters: species or system rat; details: Sprague Dawley, rat, lung, intravenous
Description: (§1) [^18F]-(1S,3S)-3-(((6-(5-((((4-(fluoro)butyl)(methyl)carbamoyl)oxy)methyl)-1-methyl-1H-1,2,3-triazol-4-yl)-2-methylpyridin-3-yl)oxy)cyclohexane-1-carboxylic acid was tested to confirm its properties, specificity and targeting of the LPA1 receptor in aged-matched wild type (Sprague Dawley rat, Charles River Laboratory, PA) and bleomycin-induced pulmonary fibrosis rat models. The bleomycin-induced pulmonary fibrosis rat model was generated in anesthetized rats that were administered bleomycin (2 μL/g) via oropharyngeal instillation. For oropharyngeal instillation, anesthetized rats (isoflurane, 4% in 100% 02) were placed on a slanted board/tilting workstation and bleomycin was dripped onto the vocal cords, facilitating aspiration. Rats were then returned to their cages until they fully recovered from anesthesia and were monitored daily for the duration of the experiment. In this experiment, the [^18F]-labeled LPA1 antagonist, produced as described in the above Examples, was tested for its ability to discriminate between normal lung in wild type rats and increased lung LPA1 expression in the bleomycin rat disease model. The bleomycin treated rats were used at 14 and 15 days post bleomycin treatment. PET images were acquired at 14 days (baseline) and 15 days (blocking with a 10 mg/kg oral dose of an LPA1 antagonist administered 30 minutes before PET scan). Two groups of rats were used in the PET imaging study—aged matched wild type rats (Group 1, n=4) and bleomycin treated rats (Group 2, n=4). All animals received a baseline PET imaging scan and a repeat PET imaging scan following a single 10 mg/kg oral dose of an LPA1 antagonist. For PET image acquisition, rats were placed in an anesthetic induction chamber and 3% isoflurane inhalant anesthesia was delivered in 100% O2 at a rate of 1-1.5 L/min. Once sedated, the rats were removed from the induction chamber and placed into a plexiglass 2-chamber holder (custom-made by BMS-Applied Biotechnology group) within the gantry of the PET system (microPET® F220™, Siemens Preclinical Solutions, Knoxville, Tenn.) where they remained for the duration of the study. Anesthesia was maintained with 1-1.5% isoflurane inhalant anesthesia delivered in 100% 02 at a rate of 2 L/min via the nose-cone. Animals were kept warm using an external standalone temperature regulating unit (M2M Imaging Corp) to prevent hypothermia during imaging. Rat respiration was continuously monitored during imaging procedures and isoflurane was adjusted dependent on depth of anesthesia. A 10-minute transmission image was first acquired using a ^57Co point source for the purpose of attenuation correction of the final PET images and confirmation of lung localization for region of interest (ROI) analysis. The scanning region was located beginning at the neck area and extending toward the hind limbs of each animal in order to place the lungs within the 7.6 cm microPET system axial field of view (FOV). Upon completion of the transmission scan, each rat received administration of between 19.5-29.7 MBq (542-803 μCi) of [^18F]-(1S,3S)-3-(((6-(5-((((4-(fluoro)butyl)(methyl) carbamoyl)oxy)methyl)-1-methyl-1H-1,2,3-triazol-4-yl)-2-methylpyridin-3-yl)oxy)cyclohexane-1-carboxylic acid tracer via tail vein catheter followed by a 2 hour dynamic PET emission scan. For blocking studies, the same protocol was flowed 30 minutes after a 10 mg/kg oral dose of an LPA1 antagonist. Images were reconstructed using a maximum a posteriori (MAP) algorithm with attenuation correction using the collected transmission images and corrected for radioisotope decay. The PET images were then co-registered with corresponding transmission images using anatomical landmarks (air in lung) and boundaries of the animal holder. Images were analyzed by Inveon Research Workstation (Siemens Medical Solutions USA Inc., PA). Analysis for each rat was done with regions of interest (ROIs) drawn onto each whole lung and a section of the liver using the co-registered transmission images. […]

[2] = biological target: LPA1 (Rattus norvegicus, UniProt P61794); assay: as above; details: for Lung uptake (% ID/g) @ 60-90 min: baseline PET scan, listed as [^18F]-(1S,3S)-3-(6-(5-((((4-(fluoro)butyl)(methyl)carbamoyl)oxy)methyl)-1-meth))
Description: as §1

[3] = Free fraction (free of protein binding) of the PET radioligand; type: in vitro ADME; details: read-out: free fractions, free of protein binding

Sequence of LPA1 (P61794 whole entry): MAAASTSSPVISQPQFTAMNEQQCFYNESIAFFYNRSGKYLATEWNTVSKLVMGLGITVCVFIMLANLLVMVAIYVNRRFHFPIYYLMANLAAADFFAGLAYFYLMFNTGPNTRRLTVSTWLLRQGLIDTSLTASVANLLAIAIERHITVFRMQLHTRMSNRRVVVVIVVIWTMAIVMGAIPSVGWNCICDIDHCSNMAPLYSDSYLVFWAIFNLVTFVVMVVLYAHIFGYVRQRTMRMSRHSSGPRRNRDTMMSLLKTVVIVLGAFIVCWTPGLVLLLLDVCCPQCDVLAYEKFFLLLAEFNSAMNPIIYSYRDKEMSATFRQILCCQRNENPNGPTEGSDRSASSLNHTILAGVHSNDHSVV

Cc1nc(-c2nnn(C)c2COC(=O)N(C)CCCC[18F])ccc1O[C@H]1CCC[C@H](C(=O)O)C1 [Example 16]
tissue uptake ([1]; bleomycin treated rats (Group 2, n=4), baseline, 60-90 minutes post injection, read-out: mean and standard error of radiotracer uptake in lung tissue): 0.116 %ID/g | tissue uptake ([1]; individual bleomycin treated rats (Group 2), baseline PET scan, 14 days post bleomycin, read-out: Lung uptake (% ID/g) @ 60-90 min): 0.116 %ID/g | tissue uptake ([1]; individual wild type rats (Group 1), baseline PET scan, read-out: Lung uptake (% ID/g) @ 60-90 min): 0.085 %ID/g | tissue uptake ([1]; wild type rats (Group 1, n=4), baseline, 60-90 minutes post injection, read-out: mean and standard error of radiotracer uptake in lung tissue): 0.08 %ID/g | increase in the lung radioligand signal in disease induced model vs wild type animals ([2]; bleomycin treated vs wild type rats, baseline, p<0.05): 46% | Lung uptake (% ID/g) @ 60-90 min ([2]; individual bleomycin treated rats (Group 2), 14 days post bleomycin): 0.142 % ID/g and 0.118 % ID/g and 0.088 % ID/g | Lung uptake (% ID/g) @ 60-90 min ([2]; individual wild type rats (Group 1)): 0.075 % ID/g and 0.063 % ID/g and 0.095 % ID/g | fraction unbound [3]: 0.05 to 0.11
